Source: patent publication US20130217678A1, “PHARMACEUTICAL AGENT COMPRISING QUINOLONE COMPOUND” (OTSUKA PHARMACEUTICAL CO., LTD., priority 2008, published 2013)

Legend:
[1] = system: dopamine content in the brain corpus striatum region; experiment: Dopaminergic neuronal protective activity in MPTP-treated C57BL/6 mouse: dopamine content in striatum (HPLC); assay type: in vivo; settings: 10 mg/kg oral at 30 min, 24 h, 48 h after MPTP s.c.; striatum 72 h after MPTP; mouse without MPTP = 100%
Experimental: (§1) Using a mouse having MPTP-induced dopaminergic neurons (Chan P. et al., J Neurochem, 57, 348-351 (1991)), the dopaminergic neuronal protective activity was evaluated based on the protein levels of tyrosine hydroxylase (TH) and dopamine transporter (DAT), which are dopaminergic neuronal marker proteins, and a dopamine content in the brain corpus striatum region after the compound administration (Mori A. et al., Neurosci Res, 51, 265-274 (2005)).
(§2) A male C57BL/6 mouse (provided by Japan Charles River Inc., 10 to 12 weeks) was used as a test animal. MPTP was dissolved in a physiological salt solution so that the concentration was 4 mg/ml, and then administered to the mouse subcutaneously in a volume of 10 ml/kg. A test compound was suspended in a 5% gum arabic/physiological salt solution (w/v) so that the concentration was 1 mg/ml. Each of the test compounds or solvents thereof was orally administered to the mouse after 30 minutes, 24 hours, and 48 hours of the MPTP administration. The mouse was decapitated after 72 hours of the MPTP administration, the brain was removed, and each side of the striatum was dissected.
The right striatum, the tissue weight of which was measured immediately after dissection, was used as an analysis sample for determining the dopamine content. Each tissue was homogenized in a 0.1 N perchloric acid solution containing isoproterenol as an internal standard substance of the measurement, using an ultrasonic homogenizer while being cooled with ice. The supernatant obtained from 20,000 g of homogenate that had been centrifuged at 4° C. for 15 minutes was subjected to a high-performance liquid chromatography with a reversed phase column (a product of Eicom Corporation). A mobile phase 15% methanol 0.1 M citric acid/0.1 M sodium acetate buffer solution (containing 190 mg/L 1-sodium octane sulfonate and 5 mg/L EDTA, pH 3.5) was flowed at a rate of 0.5 ml/min, and the dopamine peak of each sample was detected using an electrochemical detector (applied voltage: +750 mV vs. Ag/AgCl, a product of Eicom Corporation). With reference to the identified dopamine peak, the dopamine content per tissue weight was calculated in each sample using analysis software (a product of Gilson Inc.).
(§3) In both analyses, the value of the sample derived from the MPTP-induced mouse in which only the test compound or the solvent was administered was expressed relative to the value of the sample derived from the mouse without MPTP treatment (100%). Values were analyzed statistically using a nonclinical statistical analysis system, and values of significance probability less than 0.05 were defined as significant.

[2] = system: tyrosine hydroxylase (TH); experiment: Dopaminergic neuronal protective activity in MPTP-treated C57BL/6 mouse: TH protein level in striatum (Western blot); assay type: in vivo; settings: 10 mg/kg oral at 30 min, 24 h, 48 h after MPTP s.c.; striatum 72 h after MPTP; mouse without MPTP = 100%
Experimental: as §1, §2
(§4) The left striatum was used as a sample to detect the protein level by Western blot analysis. Each tissue was homogenized in a HEPES buffer sucrose solution (0.32 M sucrose, 4 μg/ml pepstatin, 5 μg/ml aprotinin, 20 μg/ml trypsin inhibitor, 4 μg/ml leupeptin, 0.2 mM phenylmethanesulfonyl fluoride, 2 mM ethylenediaminetetraacetic acid (EDTA), 2 mM ethylene glycol bis(β aminoethyl ether) tetraacetic acid, 20 mM HEPES, pH 7.2), and assayed for protein using a bicinchoninic acid kit for protein assay (provided by Pierce Corporation). Each homogenized sample, having an equal amount of protein that had been dissolved in a Laemmli sample buffer solution, was subjected to electrophoresis through a sodium dodecyl sulfate polyacrylamide gel. […] Subsequently, a horseradish peroxidase-labeled secondary antibody (a product of Amersham K.K.) for each primary antibody was fixed, and the chemiluminescence associated with enzyme activity of peroxidase was detected using a X-ray film. The density of the protein band on the film was analyzed using a densitometer (a product of Bio-rad Laboratories Inc.) to obtain the TH value relative to Na^+/K^+-ATPase and the DAT value relative to actin.
as §3

[3] = system: human neuroblastoma cell lines SH-SY5Y treated with 1-methyl-4-phenylpyridinium (MPP+); experiment: Improvement of mitochondrial function (Alamar Blue mitochondrial oxidation reduction activity) in MPP+-treated SH-SY5Y cells; assay type: cell-based; settings: 1.5 mM MPP+, relative to cells in DMSO alone = 100%, read-out: Fluorescence Intensity (%); for activity at 0.01 µg/mL: compound 0.01 μg/ml; for activity at 0.03 µg/mL: compound 0.03 μg/ml; for activity at 0.1 µg/mL: compound 0.1 μg/ml; for activity at 0.3 µg/mL: compound 0.3 μg/ml; for activity at 1 µg/mL: compound 1 μg/ml
Experimental: In human neuroblastoma cell lines SH-SY5Y in which mitochondrial function was damaged by MPP^+ treatment (Bollimuntha S. et al., J Biol Chem, 280, 2132-2140 (2005) and Shang T. et al., J Biol Chem, 280, 34644-34653 (2005)), the improvement of mitochondrial function was evaluated on the basis of the measurement value for mitochondrial oxidation reduction activity using Alamar Blue fluorescent dye after the compound addition (Nakai M. et al, Exp Neurol, 179, 103-110 (2003)).
The human neuroblastoma cell lines SH-SY5Y were cultured in Dulbecco's Modified Eagle's Medium containing 10% fetal bovine serum (DMEM containing 50 units/ml penicillin and 50 μg/ml streptomycin as antibiotics) at 37° C. in the presence of 5% carbon dioxide. Cells were scattered on a poly-D-lysine-coated 96-well black plate at a concentration of 3−6×10^4 cells/cm^2 (medium amount: 100 μl/well) and cultured in the medium for two days. Further, the medium was changed to DMEM containing a 1% N2 supplement (N2-DMEM) or to a medium (100 μl/well) in which 1.5 mM MPP^+ was dissolved. The cells were cultured therein for 39 to 48 hours, and then subjected to a mitochondrial oxidation reduction activity measurement system. A sample compound that had been previously dissolved in dimethyl sulfoxide (DMSO) was diluted with N2-DMEM and added in a volume of 10 μl/well 24 hours before the activity measurement (final compound concentration: 0.01 to 1 μg/ml).
After removal of the medium by suction, a balanced salt solution containing 10% Alamar Blue (154 mM sodium chloride, 5.6 mM potassium chloride, 2.3 mM calcium chloride, 1.0 mM magnesium chloride, 3.6 mM sodium hydrogen carbonate, 5 mM glucose, 5 mM HEPES, pH 7.2) was added in a volume of 100 μl/well, and reacted in an incubator at 37° C. for 1 hour. The fluorescent intensity was detected using a fluorescence detector (a product of Hamamatsu Photonics K.K., excitation wavelength: 530 nm, measurement wavelength: 580 nm) to thereby measure the mitochondrial oxidation reduction activity.
The fluorescent intensity of the well of the cells cultured in a medium containing MPP^+ and each of the sample compounds was relatively evaluated based on the 100% fluorescent intensity of the well of the cells cultured in a medium containing DMSO alone (final concentration: 0.1%).

[4] = system: dopamine transporter (DAT); experiment: Dopaminergic neuronal protective activity in MPTP-treated C57BL/6 mouse: DAT protein level in striatum (Western blot); assay type: in vivo; settings: 10 mg/kg oral at 30 min, 24 h, 48 h after MPTP s.c.; striatum 72 h after MPTP; mouse without MPTP = 100%
Experimental: as §1, §2, §4, §3

CCCOc1ccc(C)c2c(=O)c(-c3ccc(OC)cc3)c[nH]c12 [Example 1, 3-(4-Methoxyphenyl)-5-methyl-8-propoxy-1H-quinolin-4-one]
Dopamine content in the brain corpus striatum region (% of control) [1]: 39.6 % of control | Protein level of tyrosine hydroxylase (TH) in the brain corpus striatum region (% of control) [2]: 86.2 % of control | activity at 0.01 µg/mL [3]: 58% | activity at 0.03 µg/mL [3]: 68% | activity at 0.1 µg/mL [3]: 73% | activity at 0.3 µg/mL [3]: 66% | activity at 1 µg/mL [3]: 46% | Protein level of dopamine transporter (DAT) in the brain corpus striatum region (% of control) [4]: 84.7 % of control | melting point: 192 to 193 °C

CCCOc1ccc(C2CC2)c2c(=O)c(-c3ccc(OC)cc3)c[nH]c12 [Example 65, 5-Cyclopropyl-3-(4-methoxyphenyl)-8-propoxy-1H-quinolin-4-one]
Dopamine content in the brain corpus striatum region (% of control) [1]: 31.2 % of control | Protein level of tyrosine hydroxylase (TH) in the brain corpus striatum region (% of control) [2]: 65.2 % of control | activity at 0.01 µg/mL [3]: 59% | activity at 0.03 µg/mL [3]: 73% | activity at 0.1 µg/mL [3]: 78% | activity at 0.3 µg/mL [3]: 66% | activity at 1 µg/mL [3]: 20% | Protein level of dopamine transporter (DAT) in the brain corpus striatum region (% of control) [4]: 73.0 % of control | melting point: 168 to 170 °C

COc1ccc(-c2c[nH]c3c(-n4ccnc4)ccc(C)c3c2=O)cc1 [Example 67, 8-Imidazol-1-yl-3-(4-methoxyphenyl)-5-methyl-1H-quinolin-4-one]
Dopamine content in the brain corpus striatum region (% of control) [1]: 26.7 % of control | Protein level of tyrosine hydroxylase (TH) in the brain corpus striatum region (% of control) [2]: 77.9 % of control | activity at 0.01 µg/mL [3]: 45% | activity at 0.03 µg/mL [3]: 54% | activity at 0.1 µg/mL [3]: 61% | activity at 0.3 µg/mL [3]: 57% | activity at 1 µg/mL [3]: 42% | Protein level of dopamine transporter (DAT) in the brain corpus striatum region (% of control) [4]: 50.9 % of control | melting point: 196 to 198 °C

CCCSc1ccc(C)c2c(=O)c(-c3ccc(OC)cc3)c[nH]c12 [Example 70, 3-(4-Methoxyphenyl)-5-methyl-8-propylsulfanyl-1H-quinolin-4-one]
Dopamine content in the brain corpus striatum region (% of control) [1]: 26.5 % of control | Protein level of tyrosine hydroxylase (TH) in the brain corpus striatum region (% of control) [2]: 90.2 % of control | activity at 0.01 µg/mL [3]: 48% | activity at 0.03 µg/mL [3]: 56% | activity at 0.1 µg/mL [3]: 61% | activity at 0.3 µg/mL [3]: 50% | activity at 1 µg/mL [3]: 22% | Protein level of dopamine transporter (DAT) in the brain corpus striatum region (% of control) [4]: 64.1 % of control | melting point: 132 to 135 °C
